The numbers were not newly measured in patent publication US20260000700A1, “TARGETED LINEAR CONJUGATES COMPRISING POLYETHYLENEIMINE AND POLYETHYLENE GLYCOL AND POLYPLEXES COMPRISING THE SAME” (TARGIMMUNE THERAPEUTICS AG, priority 2022, published 2026), which cites them from elsewhere.

This data set concerns the target EGFR (Homo sapiens, UniProt P00533).

The Kd is the equilibrium constant for the complex coming apart. As for YHWYGYTPQNVI [GE-11], the Kd was 22 nM.
